Laboratory results as given in PubChem BioAssay AID330 (DTP/NCI, 2004).
“And” between values parts separate entries of the source, which are not always exact repeats. Equal entries are not always repeated. Toxic doses and inconclusive results are not listed. How the source made its calls: active means survival T/C of 150% or more; inactive means T/C below 125% in these data.

Tested on: P388 leukemia ip, CD2F1 mice, survival T/C
Assay: NCI In Vivo Anticancer Drug Screen. Data for tumor model P388 Leukemia (intraperitoneal) in CD2F1 (CDF1) mice
Conditions: endpoint: median survival time, higher = longer survival
Procedure, shortened: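 Mice carrying the transplanted tumor received test compound or vehicle. Survival was recorded in each group, and the value is the treated-group measurement divided by that of the vehicle-treated control group.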

[1] = dose: 25.0 mg/kg/injection, schedule: Q01DX009 (ip), vehicle: saline with Tween-80
[2] = dose: 50.0 mg/kg/injection, schedule: Q01DX009 (ip), vehicle: saline with Tween-80
[3] = dose: 100.0 mg/kg/injection, schedule: Q01DX009 (ip), vehicle: saline with Tween-80
[4] = dose: 100.0 mg/kg/injection, schedule: Q04DX003 (ip), vehicle: saline with Tween-80
[5] = dose: 200.0 mg/kg/injection, schedule: Q04DX003 (ip), vehicle: saline with Tween-80
[6] = dose: 50.0 mg/kg/injection, schedule: Q01DX005 (ip), vehicle: saline
[7] = dose: 200.0 mg/kg/injection, schedule: Q01DX009 (ip), vehicle: saline with Tween-80
[8] = dose: 50.0 mg/kg/injection, schedule: Q04DX003 (ip), vehicle: saline with Tween-80
[9] = dose: 50.0 mg/kg/injection, schedule: Q01DX009 (ip), vehicle: saline

Measured: T/C

CCOc1ccccc1N=Cc1c2ccccc2cc2ccccc12
inactive: dose: 12.5 mg/kg/injection, schedule: Q01DX009 (ip), vehicle: saline with Tween-80 100 % of control | [1] 95 % of control | [2] 98 % of control and 86 % of control | [3] 89 % of control

O=C1CCCCCCCCCCC1C(O)(C(F)(F)F)C(F)(F)F (centres undefined)
inactive: [4] 100 % of control | [5] 90 % of control | dose: 400.0 mg/kg/injection, schedule: Q04DX003 (ip), vehicle: saline with Tween-80 100 % of control

COC(=O)[C@]12CCC(C)(C)C[C@H]1C1=CC[C@@H]3[C@@]4(C)C[C@H](O)[C@H](OC5OC(CO)C(O)C(O)C5O)C(CO)(CO)[C@@H]4CC[C@@]3(C)[C@]1(C)C[C@H]2O (some centres undefined)
inactive: dose: 2.5 mg/kg/injection, schedule: Q01DX005 (ip), vehicle: Klucel (hydroxypropylcellulose) (HPC) 94 % of control | dose: 5.0 mg/kg/injection, schedule: Q01DX005 (ip), vehicle: Klucel (hydroxypropylcellulose) (HPC) 95 % of control | dose: 10.0 mg/kg/injection, schedule: Q01DX005 (ip), vehicle: Klucel (hydroxypropylcellulose) (HPC) 100 % of control | dose: 20.0 mg/kg/injection, schedule: Q01DX005 (ip), vehicle: Klucel (hydroxypropylcellulose) (HPC) 101 % of control

CCOC(C)(OCC)N(C)C
inactive: [6] 101 % of control | dose: 100.0 mg/kg/injection, schedule: Q01DX005 (ip), vehicle: saline 108 % of control | dose: 200.0 mg/kg/injection, schedule: Q01DX005 (ip), vehicle: saline 111 % of control

CCOP(=S)(N1CC1C)N1CC1C (centres undefined)
inactive: [2] 120 % of control | dose: 66.0 mg/kg/injection, schedule: Q04DX003 (ip), vehicle: saline with Tween-80 100 % of control | [4] 109 % of control

COC(=O)C1=NC(c2ccccc2)(c2ccccc2)C(C(=O)OC)=C(C(=O)OC)P(c2ccccc2)(c2ccccc2)=C1C(=O)OC
inactive: dose: 50.0 mg/kg/injection, schedule: Q01DX005 (ip), vehicle: Klucel (hydroxypropylcellulose) (HPC) 88 % of control | dose: 100.0 mg/kg/injection, schedule: Q01DX005 (ip), vehicle: Klucel (hydroxypropylcellulose) (HPC) 92 % of control | dose: 200.0 mg/kg/injection, schedule: Q01DX005 (ip), vehicle: Klucel (hydroxypropylcellulose) (HPC) 110 % of control

CCCCCC1(O)OC(=O)C(C)=C1C (centres undefined)
inactive: dose: 12.5 mg/kg/injection, schedule: Q04DX003 (ip), vehicle: saline 100 % of control | dose: 25.0 mg/kg/injection, schedule: Q04DX003 (ip), vehicle: saline 100 % of control | dose: 50.0 mg/kg/injection, schedule: Q04DX003 (ip), vehicle: saline 122 % of control

CC[N]1c2cc(C(C)(C)C)cc(C(C)(C)C)c2[O][Sb]1([c]1ccccc1)([c]1ccccc1)[c]1ccccc1
inactive: [2] 98 % of control | [3] 100 % of control | [7] 98 % of control

C[CH2][Sn]([Cl])([Cl])[CH2]C.c1ccc2nc(-c3ccc4ccccc4n3)ccc2c1
inactive: dose: 60.0 mg/kg/injection, schedule: Q01DX005 (ip), vehicle: Klucel (hydroxypropylcellulose) (HPC) 106 % of control | dose: 120.0 mg/kg/injection, schedule: Q01DX005 (ip), vehicle: Klucel (hydroxypropylcellulose) (HPC) 106 % of control | dose: 240.0 mg/kg/injection, schedule: Q01DX005 (ip), vehicle: Klucel (hydroxypropylcellulose) (HPC) 103 % of control

CCCCCCCCCCCCCCCCCC1=NCCN1CCN
inactive: [1] 100 % of control | dose: 25.0 mg/kg/injection, schedule: Q04DX003 (ip), vehicle: saline with Tween-80 100 % of control | [2] 104 % of control | [8] 109 % of control | [3] 109 % of control | [4] 95 % of control

Cc1ccc(C2=Nc3ccccc3SC(c3cccc([N+](=O)[O-])c3)C2)cc1 (centres undefined)
inactive: dose: 3.12 mg/kg/injection, schedule: Q01DX009 (ip), vehicle: saline 90 % of control | dose: 6.25 mg/kg/injection, schedule: Q01DX009 (ip), vehicle: saline 97 % of control | dose: 12.5 mg/kg/injection, schedule: Q01DX009 (ip), vehicle: saline 88 % of control | [9] 86 % of control

COc1ccc(Br)c(C(=O)N2CCc3ccccc32)c1OS(=O)(=O)c1ccc(C)cc1
inactive: dose: 25.0 mg/kg/injection, schedule: Q01DX009 (ip), vehicle: distilled water + Tween-80 98 % of control | dose: 50.0 mg/kg/injection, schedule: Q01DX009 (ip), vehicle: distilled water + Tween-80 100 % of control | dose: 100.0 mg/kg/injection, schedule: Q01DX009 (ip), vehicle: distilled water + Tween-80 91 % of control | dose: 200.0 mg/kg/injection, schedule: Q01DX009 (ip), vehicle: distilled water + Tween-80 89 % of control | dose: 400.0 mg/kg/injection, schedule: Q01DX009 (ip), vehicle: distilled water + Tween-80 95 % of control

CC(=O)NC(C(=O)O)C(C)(C)SN=O (centres undefined)
inactive: [2] 93 % of control | [3] 98 % of control | [7] 95 % of control

CC1(C)NC(=O)[C@]2(C[C@@H](OC(=O)c3ccccc3)C=C2C=O)O1
inactive: dose: 25.0 mg/kg/injection, schedule: Q01DX005 (ip), vehicle: saline with Tween-80 109 % of control | dose: 50.0 mg/kg/injection, schedule: Q01DX005 (ip), vehicle: saline with Tween-80 96 % of control

C=C(Cl)C(=NC1CCCCC1)NC(C)(C)C
inactive: dose: 0.79 mg/kg/injection, schedule: Q01DX005 (ip), vehicle: Klucel (hydroxypropylcellulose) (HPC) 97 % of control | dose: 1.56 mg/kg/injection, schedule: Q01DX005 (ip), vehicle: Klucel (hydroxypropylcellulose) (HPC) 101 % of control and 107 % of control | dose: 3.12 mg/kg/injection, schedule: Q01DX005 (ip), vehicle: Klucel (hydroxypropylcellulose) (HPC) 104 % of control and 107 % of control and 109 % of control | dose: 6.25 mg/kg/injection, schedule: Q01DX005 (ip), vehicle: Klucel (hydroxypropylcellulose) (HPC) 116 % of control | dose: 12.5 mg/kg/injection, schedule: Q01DX005 (ip), vehicle: Klucel (hydroxypropylcellulose) (HPC) 110 % of control

COc1ccc(N2c3ccccc3-c3cc[nH]c(=O)c3[C@H]2O)cc1OC
inactive: dose: 18.75 mg/kg/injection, schedule: Q01DX001 (ip), vehicle: Klucel (hydroxypropylcellulose) (HPC) 101 % of control | dose: 18.75 mg/kg/injection, schedule: Q04DX002 (ip), vehicle: Klucel (hydroxypropylcellulose) (HPC) 99 % of control | dose: 18.75 mg/kg/injection, schedule: Q04DX003 (ip), vehicle: Klucel (hydroxypropylcellulose) (HPC) 112 % of control | dose: 37.5 mg/kg/injection, schedule: Q01DX001 (ip), vehicle: Klucel (hydroxypropylcellulose) (HPC) 100 % of control | dose: 37.5 mg/kg/injection, schedule: Q04DX002 (ip), vehicle: Klucel (hydroxypropylcellulose) (HPC) 110 % of control | dose: 37.5 mg/kg/injection, schedule: Q04DX003 (ip), vehicle: Klucel (hydroxypropylcellulose) (HPC) 96 % of control | dose: 75.0 mg/kg/injection, schedule: Q01DX001 (ip), vehicle: Klucel (hydroxypropylcellulose) (HPC) 103 % of control | dose: 75.0 mg/kg/injection, schedule: Q04DX002 (ip), vehicle: Klucel (hydroxypropylcellulose) (HPC) 106 % of control | dose: 75.0 mg/kg/injection, schedule: Q04DX003 (ip), vehicle: Klucel (hydroxypropylcellulose) (HPC) 96 % of control | dose: 150.0 mg/kg/injection, schedule: Q01DX001 (ip), vehicle: Klucel (hydroxypropylcellulose) (HPC) 104 % of control | dose: 150.0 mg/kg/injection, schedule: Q04DX002 (ip), vehicle: Klucel (hydroxypropylcellulose) (HPC) 101 % of control | dose: 150.0 mg/kg/injection, schedule: Q04DX003 (ip), vehicle: Klucel (hydroxypropylcellulose) (HPC) 106 % of control

C/C=C/C=C1/OC(C)=C(C(=O)OCC)C1=O
inactive: dose: 6.25 mg/kg/injection, schedule: Q01DX009 (ip), vehicle: Klucel (hydroxypropylcellulose) (HPC) 107 % of control | dose: 12.5 mg/kg/injection, schedule: Q01DX009 (ip), vehicle: Klucel (hydroxypropylcellulose) (HPC) 111 % of control | dose: 50.0 mg/kg/injection, schedule: Q01DX009 (ip), vehicle: Klucel (hydroxypropylcellulose) (HPC) 123 % of control

CCN(CC)CCn1nc2n(c(=O)c1=O)CC(=O)N(C)c1ccc(Cl)cc1-2
inactive: [9] 105 % of control | dose: 100.0 mg/kg/injection, schedule: Q01DX009 (ip), vehicle: saline 105 % of control | dose: 200.0 mg/kg/injection, schedule: Q01DX009 (ip), vehicle: saline 99 % of control

Cn1ncc2c(N)c(C#N)c(=O)[nH]c21
inactive: dose: 25.0 mg/kg/injection, schedule: Q01DX001 (ip), vehicle: saline with Tween-80 102 % of control

CN1C2CCC1C(Br)C=C2c1ccccc1 (centres undefined)
inactive: [6] 109 % of control

COc1ccc(-n2c(C)csc2=S)cc1
inactive: [8] 100 % of control | [4] 100 % of control | [5] 95 % of control

CN(C)C1CCc2ccccc2C1OC(=O)c1ccccc1 (centres undefined)
inactive: [2] 101 % of control | [3] 107 % of control
